# What was measured:
# Type in all cases: in vivo, mouse
# MRL/lpr mice = assay: Renal histopathology scoring (kidney IC-GN), MRL/lpr mice; conditions: G6: 1.5 mg/kg ip, 3× wk
# Procedure: (§1) For histological analyses, the left kidney from each animal is removed and fixed in 10% buffered neutral 10% formalin (EMD) for 48 hours on an orbital rocker at 25° C., then washed overnight with running dH2O and stored in 70% ethanol at 4° C. until ready to be processed. Kidney stains used for histological analyses included hematoxylin and eosin (H&E), Periodic Acid Schiff (PAS) and Trichrome stains (Wistar Institute, Philadelphia, Pa.). All 3 stained sections are used by the pathologist for scoring purposes. All histological scoring is performed blinded and by an independent board certified veterinary medical pathologist (Julie Engiles, VMD, DACVP). Multiple stains are used to determine score values. Images in FIG. 17 show worst affected area of section selected blindly by the pathologist.
# (§2) Kidney IC-GN Scoring Method (Smith, Dong et al. 2007):
# (§3) 1. Glomerular cellularity—Score 1-5: Null, low, moderate, high, severe
# (§4) 2. Glomerular necrosis—Score 1-5: Null, low, moderate, high, severe
# (§5) 3. Glomerulosclerosis—Score 1-5: Null, low, moderate, high, severe
# (§6) 4. Interstitial infiltration—Score 1-5: Null, low, moderate, high, severe
# (§7) 5. Tubular atrophy—Score 1-5: Null, low, moderate, high, severe
# (§8) 6. Interstitial fibrosis—Score 1-5: Null, low, moderate, high, severe
# (§9) 7. Vasculitis—Score 1-5: Null, low, moderate, high, severe
# (§10) Specific Pathologist Definitions: • Necrosis is defined by the presence of nuclear debris/pyknosis within the glomerular tuft indicative of “necrosis.” In many samples, this is a very mild, rare finding within only a very few segments of the glomerular tuft. Also consider effacement of the glomerular tuft by PAS positive, Trichrome negative material necrosis. • Glomerular sclerosis is defined by increased fibroplasia or fibrosis within the glomerular tuft or capsule. […] Most of the vascular changes are mild and could be considered “arteriosclerosis” characterized by proliferation of the smooth muscle cells, and hyalinization of the extracellular matrix. This change may reflect hypertension secondary to glomerular pathology. In very few animals is there overt “vasculitis.” Most inflammatory changes are within the walls of the blood vessels, with little to no damage to the endothelium, and no overt hemorrhage/fibrin leakage. Many also have perivascular rims of fibroblasts.
# NZM mice [1] = assay: Body weight progression, NZM mice (Example 2); conditions: G5 1.5 mg/kg ip, 3× wk
# NZM mice [2] = assay: Renal histopathology scoring (kidney IC-GN), NZM mice (Example 2)
# Procedure: as §1, with “neutral” for “neutral 10%”, “39” for “17”
# as §2, §3, §4, §5, §6, §7, §8, §9, §10
smiles,measurement,setting,value
"C[C@@H]1C[C@H]2[C@@H]3CCC4=CC(=O)C=C[C@]4(C)[C@@]3(F)[C@@H](O)C[C@]2(C)[C@@]1(O)C(=O)CO [dexamethasone, Dexamethasone, reference compound]","EOS glomerular cellularity, percent change vs vehicle",MRL/lpr mice,−15%
same,"EOS glomerular necrosis, percent change vs vehicle",MRL/lpr mice,−25%
same,"EOS glomerulosclerosis, percent change vs vehicle",MRL/lpr mice,−27%
same,"EOS interstitial infiltration, percent change vs vehicle",MRL/lpr mice,−50%
same,"EOS vasculitis, percent change vs vehicle",MRL/lpr mice,−18%
same,"Kidney EOS interstitial fibrosis, percent change vs vehicle",MRL/lpr mice,−27%
same,"Kidney EOS tubular atrophy, percent change vs vehicle",MRL/lpr mice,−23%
same,"Body mass AUC, percent change vs vehicle",NZM mice [1],−1%
same,"Kidney glomerular cellularity, percent change vs vehicle","NZM mice [2]; G5 1.5 mg/kg ip, 3× wk",−38%
same,"Kidney glomerular necrosis, percent change vs vehicle","NZM mice [2]; G5 1.5 mg/kg ip, 3× wk",−16%
same,"Kidney glomerulosclerosis, percent change vs vehicle","NZM mice [2]; G5 1.5 mg/kg ip, 3× wk",−17%
same,"Kidney interstitial fibrosis, percent change vs vehicle","NZM mice [2]; G5 1.5 mg/kg ip, 3× wk",−36%
same,"Kidney interstitial infiltration, percent change vs vehicle","NZM mice [2]; G5 1.5 mg/kg ip, 3× wk",−36%
same,"Kidney tubular atrophy, percent change vs vehicle","NZM mice [2]; G5 1.5 mg/kg ip, 3× wk",−25%
same,"Kidney vasculitis, percent change vs vehicle","NZM mice [2]; G5 1.5 mg/kg ip, 3× wk",−40%
same,"p, glomerular cellularity (GC) vs G8 NZW/LacJ non-diseased",NZM mice [2]; G6 1.5 mg/kg 1× wk,p < 0.01
same,"p, glomerular necrosis (GN) vs G5 CTX 50 mg/kg 1× wk",NZM mice [2]; G6 1.5 mg/kg 1× wk,p < 0.05
same,"p, glomerular necrosis (GN) vs G8 NZW/LacJ non-diseased",NZM mice [2]; G6 1.5 mg/kg 1× wk,p < 0.01
same,"p, glomerular necrosis (GN) vs G9 NZM diseased baseline",NZM mice [2]; G6 1.5 mg/kg 1× wk,p < 0.05
same,"p, glomerulosclerosis (GS) vs G4 Bortezomib 0.3 mg/kg 2× wk",NZM mice [2]; G6 1.5 mg/kg 1× wk,p < 0.001
same,"p, glomerulosclerosis (GS) vs G5 CTX 50 mg/kg 1× wk",NZM mice [2]; G6 1.5 mg/kg 1× wk,p < 0.05
same,"p, glomerulosclerosis (GS) vs G8 NZW/LacJ non-diseased",NZM mice [2]; G6 1.5 mg/kg 1× wk,p < 0.001
same,"p, glomerulosclerosis (GS) vs G9 NZM diseased baseline",NZM mice [2]; G6 1.5 mg/kg 1× wk,p < 0.05
same,"p, interstitial fibrosis (IF) vs G5 CTX 50 mg/kg 1× wk",NZM mice [2]; G6 1.5 mg/kg 1× wk,p < 0.05
same,"p, interstitial fibrosis (IF) vs G8 NZW/LacJ non-diseased",NZM mice [2]; G6 1.5 mg/kg 1× wk,p < 0.05
same,"p, interstitial infiltration (II) vs G4 Bortezomib 0.3 mg/kg 2× wk",NZM mice [2]; G6 1.5 mg/kg 1× wk,p < 0.01
same,"p, interstitial infiltration (II) vs G5 CTX 50 mg/kg 1× wk",NZM mice [2]; G6 1.5 mg/kg 1× wk,p < 0.05
same,"p, interstitial infiltration (II) vs G8 NZW/LacJ non-diseased",NZM mice [2]; G6 1.5 mg/kg 1× wk,p < 0.05
same,"p, tubular atrophy (TA) vs G4 Bortezomib 0.3 mg/kg 2× wk",NZM mice [2]; G6 1.5 mg/kg 1× wk,p < 0.01
same,"p, tubular atrophy (TA) vs G5 CTX 50 mg/kg 1× wk",NZM mice [2]; G6 1.5 mg/kg 1× wk,p < 0.05
same,"p, tubular atrophy (TA) vs G8 NZW/LacJ non-diseased",NZM mice [2]; G6 1.5 mg/kg 1× wk,p < 0.01

# — US9340559B2, “Proteasome inhibitor delanzomib for use in the treatment of lupus” (Cephalon, Inc., priority 2011, dated 2016)
